Assay results taken from BigSolDB 2.1.

Nc1cccc(S(=O)(=O)c2cccc(N)c2)c1
solubility (mole fraction)
Details | 283.15 K | 288.15 K | 293.15 K | 298.15 K | 303.15 K | 308.15 K | 313.15 K | 318.15 K | 323.15 K | 328.15 K
in 1,4-dioxane | 0.00411 | 0.00462 | 0.00538 | 0.00652 | 0.0083 | 0.0102 | 0.0123 | 0.0147 | 0.0169 | 0.0194
in DMF | 0.0869 | 0.0916 | 0.0989 | 0.11 | 0.12 | 0.132 | 0.146 | 0.162 | 0.181 | 0.2
in acetonitrile | 0.00609 | 0.00709 | 0.0087 | 0.0105 | 0.0127 | 0.0151 | 0.0182 | 0.0225 | 0.0272 | 0.033
in cyclohexane | 2.7e-06 | 3.6e-06 | 5.1e-06 | 7.7e-06 | 1.09e-05 | 1.51e-05 | 2.03e-05 | 2.78e-05 | 3.7e-05 | 4.86e-05
in ethanol | 0.00237 | 0.00256 | 0.00297 | 0.00349 | 0.00415 | 0.00492 | 0.00574 | 0.00661 | 0.00738 | 0.00837
in ethyl acetate | 0.0146 | 0.0162 | 0.0184 | 0.021 | 0.0243 | 0.0278 | 0.0321 | 0.037 | 0.0424 | 0.0485
in ethylene glycol | 0.00458 | 0.00515 | 0.00595 | 0.00701 | 0.00843 | 0.0101 | 0.012 | 0.0144 | 0.0168 | 0.0194
in isobutanol | 0.000586 | 0.000665 | 0.000784 | 0.000952 | 0.00115 | 0.00137 | 0.00166 | 0.002 | 0.00234 | 0.00271
in isopropanol | 0.00106 | 0.00121 | 0.00148 | 0.00196 | 0.00258 | 0.00326 | 0.00406 | 0.005 | 0.00611 | 0.00731
in methanol | 0.00319 | 0.00351 | 0.00397 | 0.00482 | 0.00604 | 0.00744 | 0.00905 | 0.0107 | 0.0125 | 0.0152
in n-butanol | 0.00109 | 0.00121 | 0.00142 | 0.00171 | 0.00205 | 0.00246 | 0.00294 | 0.00343 | 0.00396 | 0.00452
in n-heptanol | 0.000699 | 0.000776 | 0.000898 | 0.00106 | 0.0013 | 0.0016 | 0.002 | 0.00242 | 0.0029 | 0.00346
in n-propanol | 0.00142 | 0.00152 | 0.00177 | 0.00214 | 0.00254 | 0.00301 | 0.00356 | 0.00418 | 0.00496 | 0.0059
in water | 1.52e-05 | 1.9e-05 | 2.51e-05 | 3.32e-05 | 4.29e-05 | 5.62e-05 | 7.79e-05 | 0.000106 | 0.000145 | 0.000198
